Test results published in US11667602B2, “Compounds and their use” (AstraZeneca AB, priority 2020, dated 2023).
Values after ≈ are worked out from the molar mass of the structure shown. Where two headings read alike, the source gives them in different places.

Experiments:
human RXFP1 = target: T1, human RXFP1 (Homo sapiens, UniProt Q9HBX9); assay: RXFP1 Hu cAMP (Test A); type: cell-based; set-up: expressed in transfected cells; host or cells: Jump-In T-REx CHO-K1 cells (ThermoFisher), induced with 10 ng/ml doxycycline for 24 h
T1 sequence (Q9HBX9 1-757): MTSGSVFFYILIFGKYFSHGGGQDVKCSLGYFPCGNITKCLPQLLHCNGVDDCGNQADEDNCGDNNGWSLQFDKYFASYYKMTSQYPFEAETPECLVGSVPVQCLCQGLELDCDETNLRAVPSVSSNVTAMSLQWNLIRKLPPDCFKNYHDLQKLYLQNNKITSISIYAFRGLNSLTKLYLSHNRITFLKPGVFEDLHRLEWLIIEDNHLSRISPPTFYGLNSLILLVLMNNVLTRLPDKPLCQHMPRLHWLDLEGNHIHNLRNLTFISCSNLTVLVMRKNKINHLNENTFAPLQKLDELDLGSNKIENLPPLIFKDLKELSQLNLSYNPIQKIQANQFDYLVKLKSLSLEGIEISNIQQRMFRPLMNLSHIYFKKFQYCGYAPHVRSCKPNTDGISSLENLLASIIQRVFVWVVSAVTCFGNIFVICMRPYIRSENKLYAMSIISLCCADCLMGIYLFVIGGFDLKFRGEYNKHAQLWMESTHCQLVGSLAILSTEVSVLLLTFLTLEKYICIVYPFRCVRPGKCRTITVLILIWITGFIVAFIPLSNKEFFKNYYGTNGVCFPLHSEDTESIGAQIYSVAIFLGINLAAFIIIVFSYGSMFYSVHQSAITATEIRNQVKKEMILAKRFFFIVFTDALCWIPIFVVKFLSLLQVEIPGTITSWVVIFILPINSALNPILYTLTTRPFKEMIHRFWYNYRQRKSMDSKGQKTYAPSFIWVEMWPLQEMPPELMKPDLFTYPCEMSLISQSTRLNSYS
In short: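 Cells: CHO-K1 stably carrying human RXFP1, expressed after 24 h 10 ng/ml doxycycline; 0.5 mM IBMX final, HTRF detection after 2 h at room temperature.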

[1] = Human Liver Microsomal Stability (Test C); type: in vitro ADME; details: for microsomal CLint: human, liver microsomes
In short: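 Human liver microsome incubation per the Wernevik et al. integrated DMPK panel protocol. Intrinsic clearance reported as CLint in μl/min/mg protein, averaged arithmetically over repeat runs.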

[2] = Rat Hepatocyte Stability (Test E); type: in vitro ADME; details: geometric mean if run multiple times; for hepatocyte CLint: rat, hepatocytes
In short: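 Run per the published AstraZeneca-type rat hepatocyte stability protocol (Wernevik et al. panel). Values are mean intrinsic clearance, Clint in μl/min/10^6 cells; geometric mean used for repeated runs.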

Solubility (Test F) = type: physicochemical; details: arithmetic mean if run multiple times
Method: The assay was conducted according to the Solubility Assay described in pages 164-167 of Wernevik, J. et al., “A Fully Integrated Assay Panel for Early Drug Metabolism and Pharmacokinetics Profiling”, Assay and Drug Development Technologies, 2020, 18(4), 157-179. Data are reported in Table 36 as solubility ([…]. Where the assay was run multiple times for the same compound, the arithmetic mean is reported.

[3] = Human Plasma Protein Binding (Test B); type: in vitro ADME; details: fraction unbound (fu)
In short: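 Human plasma protein binding run per the published Wernevik et al. (2020) integrated DMPK panel protocol. Values are fraction unbound (fu, % free); repeat runs averaged arithmetically.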

[4] = Human Hepatocyte Stability (Test D); type: in vitro ADME; details: geometric mean if run multiple times; for hepatocyte CLint at 1 µM: human, cryopreserved pooled human hepatocytes (LiverPool 10-Donor)
In short: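 Pooled 10-donor cryopreserved human hepatocytes (≥80% viable) in L-15 medium at 0.25×10^6 cells per 0.25 mL well. Compound added from 100 μM acetonitrile solution; incubated at 37 °C with shaking, acetonitrile-quenched, LC-MS analysed. Clint (μL/min/10^6 cells) from ln % parent vs time slope; geometric mean of repeat runs.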

[5] = RXFP1 Hu cAMP, read-out: Test A EC50

## COc1cc(F)c(O[C@H]2CC[C@@](C)(C(N)=O)CC2)cc1C(=O)N[C@@H]1[C@H]2CC[C@H](C2)[C@@H]1C(=O)NCC1(F)CCOCC1 [Example 147, (1R,2S,3R,4S)-3-(5-(((1s,4S)-4-Carbamoyl-4-methylcyclohexyl)oxy)-4-fluoro-2-methoxybenzamido)-N-((4-fluorotetrahydro-2H-pyran-4-yl)methyl)bicyclo-[2.2.1]heptane-2-carboxamide]
Human RXFP1; RXFP1 Hu cAMP
  Test A Sinf: 111%
Human RXFP1; [5]
  EC50: > 4200 nM
[1]; human liver microsomes
  Test C Human Liver Microsomal Stability Clint: 88 µL/min/mg
[2]; rat hepatocytes
  Test E Rat Hepatocyte Stability Clint: 67 μL/min/10^6 cells
Solubility (Test F)
  solubility: 1000 µM (≈ 578 µg/mL)
[3]
  Test B Human Plasma Protein Binding (% free): 36 % free
[4]; human hepatocytes
  Test D Human Hepatocyte Stability Clint: 6.1 μL/min/10^6 cells

## COc1cc(F)c(O[C@H]2CC[C@@](C)(C(=O)O)CC2)cc1C(=O)Nc1cnccc1C(=O)NCC1(C)CCC1 [Example 150, (1s,4s)-4-(2-Fluoro-4-methoxy-5-((4-(((1-methylcyclobutyl)methyl)carbamoyl)pyridin-3-yl)carbamoyl)phenoxy)-1-methylcyclohexane-1-carboxylic acid]
Human RXFP1; RXFP1 Hu cAMP
  Test A Sinf: 95%
Human RXFP1; [5]
  EC50: 460 nM
[1]
  microsomal CLint: < 3 µL/min/mg
[2]
  hepatocyte CLint: 39 µL/min/1e6 cells
Solubility (Test F)
  solubility: 16 µM (≈ 8.44 µg/mL)
[3]
  Test B Human Plasma Protein Binding (% free): 1.8 % free
[4]
  hepatocyte CLint at 1 µM: 4.9 µL/min/1e6 cells

## COc1cc(F)c(O[C@H]2CC[C@@](C)(C(=O)O)CC2)cc1C(=O)Nc1cc(Cl)ccc1C(=O)NCC1(C)CCC1 [Example 155, (1s,4s)-4-(5-((5-Chloro-2-(((1-methylcyclobutyl)methyl)carbamoyl)phenyl)carbamoyl)-2-fluoro-4-methoxyphenoxy)-1-methylcyclohexane-1-carboxylic acid]
Human RXFP1; RXFP1 Hu cAMP
  Test A Sinf: 126%
Human RXFP1; [5]
  EC50: 8.4 nM
[1]
  microsomal CLint: 5.4 µL/min/mg
[2]
  hepatocyte CLint: 30 µL/min/1e6 cells
Solubility (Test F)
  solubility: 37 µM (≈ 20.8 µg/mL)
[3]
  Test B Human Plasma Protein Binding (% free): 0.49 % free
[4]
  hepatocyte CLint at 1 µM: 11 µL/min/1e6 cells

## COc1cc(F)c(O[C@H]2CC[C@@H](C(=O)O)CC2)cc1C(=O)N[C@@H]1[C@H]2CC[C@H](C2)[C@@H]1C(=O)Nc1ccc(F)c(C(F)(F)F)c1 [Example 179, (1S,4s)-4-(2-Fluoro-5-(((1S,2R,3S,4R)-3-((4-fluoro-3-(trifluoromethyl)phenyl)carbamoyl)bicyclo[2.2.1]heptan-2-yl)carbamoyl)-4-methoxyphenoxy)cyclohexane-1-carboxylic acid]
Human RXFP1; RXFP1 Hu cAMP
  Test A Sinf: 106%
Human RXFP1; [5]
  EC50: 16 nM
[1]
  microsomal CLint: 42 µL/min/mg
[2]
  hepatocyte CLint: 32 µL/min/1e6 cells
Solubility (Test F)
  solubility: > 800 µM
[3]
  Test B Human Plasma Protein Binding (% free): 1 % free
[4]
  hepatocyte CLint at 1 µM: 13 µL/min/1e6 cells

## COc1cc(F)c(O[C@H]2CC[C@@H](C(=O)O)CC2)cc1C(=O)N[C@@H]1[C@H]2CC[C@H](C2)[C@@H]1C(=O)NCC(C)(C)C [Example 180, (1S,4s)-4-(2-Fluoro-4-methoxy-5-(((1S,2R,3S,4R)-3-(neopentylcarbamoyl)bicyclo[2.2.1]heptan-2-yl)carbamoyl)phenoxy)cyclohexane-1-carboxylic acid]
Human RXFP1; RXFP1 Hu cAMP
  Test A Sinf: 100%
Human RXFP1; Test A EC50, RXFP1 Hu cAMP
  EC50: 950 nM
[1]
  microsomal CLint: 6.8 µL/min/mg
[2]
  hepatocyte CLint: 130 µL/min/1e6 cells
Solubility (Test F)
  solubility: > 1000 µM
[3]
  Test B Human Plasma Protein Binding (% free): 14 % free
[4]
  hepatocyte CLint at 1 µM: 2.2 µL/min/1e6 cells

## COc1cc(F)c(O[C@H]2CC[C@@H](C(=O)O)CC2)cc1C(=O)N[C@@H]1[C@H]2CC[C@H](C2)[C@@H]1C(=O)Nc1ccc(C(F)F)cc1 [Example 181, (1S,4s)-4-(5-(((1S,2R,3S,4R)-3-((4-(Difluoromethyl)phenyl)carbamoyl)bicyclo[2.2.1]heptan-2-yl)carbamoyl)-2-fluoro-4-methoxyphenoxy)cyclohexane-1-carboxylic acid]
Human RXFP1; RXFP1 Hu cAMP
  Test A Sinf: 95%
Human RXFP1; [5]
  EC50: 600 nM
[1]
  microsomal CLint: 13 µL/min/mg
[2]
  hepatocyte CLint: 48 µL/min/1e6 cells
Solubility (Test F)
  solubility: 680 µM (≈ 391 µg/mL)
[3]
  Test B Human Plasma Protein Binding (% free): 2.3 % free
[4]
  hepatocyte CLint at 1 µM: 4.1 µL/min/1e6 cells

## COc1cc(F)c(O[C@H]2CC[C@@H](C(=O)O)CC2)cc1C(=O)N[C@@H]1[C@H]2CC[C@H](C2)[C@@H]1C(=O)Nc1ccccc1 [Example 201, (1S,4s)-4-(2-Fluoro-4-methoxy-5-(((1S,2R,3S,4R)-3-(phenylcarbamoyl)bicyclo[2.2.1]heptan-2-yl)carbamoyl)phenoxy)cyclohexane-1-carboxylic acid]
Human RXFP1; RXFP1 Hu cAMP
  Test A Sinf: 98%
Human RXFP1; [5]
  EC50: 7200 nM
[1]
  microsomal CLint: 23 µL/min/mg
[2]
  hepatocyte CLint: 190 µL/min/1e6 cells
Solubility (Test F)
  solubility: 940 µM (≈ 493 µg/mL)
[3]
  Test B Human Plasma Protein Binding (% free): 1.6 % free
[4]
  hepatocyte CLint at 1 µM: 7.6 µL/min/1e6 cells

## COc1cc(F)c(O[C@H]2CC[C@@H](C(=O)O)CC2)cc1C(=O)NC1=C(C(=O)Nc2ccc(F)c(C(F)(F)F)c2)CCCC1 [Example 213, (1s,4s)-4-(2-Fluoro-5-((2-((4-fluoro-3-(trifluoromethyl)phenyl)carbamoyl)cyclohex-1-en-1-yl)carbamoyl)-4-methoxyphenoxy)cyclohexane-1-carboxylic acid]
Human RXFP1; RXFP1 Hu cAMP
  Test A Sinf: 98%
Human RXFP1; [5]
  EC50: 180 nM
[1]
  microsomal CLint: 16 µL/min/mg
[2]
  hepatocyte CLint: 8 µL/min/1e6 cells
Solubility (Test F)
  solubility: 6.5 µM (≈ 3.88 µg/mL)
[3]
  Test B Human Plasma Protein Binding (% free): 0.18 % free
[4]
  hepatocyte CLint at 1 µM: 4 µL/min/1e6 cells

## COc1cc(F)c(O[C@H]2CC[C@@H](C(=O)O)CC2)cc1C(=O)NC1=C(C(=O)Nc2ccc(F)c(C(F)(F)F)c2)CCC1 [Example 214, (1s,4s)-4-(2-Fluoro-5-((2-((4-fluoro-3-(trifluoromethyl)phenyl)carbamoyl)cyclopent-1-en-1-yl)carbamoyl)-4-methoxyphenoxy)cyclohexane-1-carboxylic acid]
Human RXFP1; RXFP1 Hu cAMP
  Test A Sinf: 115%
[1]
  microsomal CLint: < 3 µL/min/mg
[2]
  hepatocyte CLint: 5.3 µL/min/1e6 cells
Solubility (Test F)
  solubility: 400 µM (≈ 233 µg/mL)
[3]
  Test B Human Plasma Protein Binding (% free): 0.090 % free
[4]
  hepatocyte CLint at 1 µM: 2.3 µL/min/1e6 cells

## COc1cc(F)c(O[C@H]2CC[C@@](C)(C(=O)O)CC2)cc1C(=O)Nc1ccc(C)cc1C(=O)NCC1(C)CCC1 [Example 216, (1s,4s)-4-(2-Fluoro-4-methoxy-5-((4-methyl-2-(((1-methylcyclobutyl)methyl)-carbamoyl)phenyl)carbamoyl)phenoxy)-1-methylcyclohexane-1-carboxylic acid]
Human RXFP1; RXFP1 Hu cAMP
  Test A Sinf: 132%
Human RXFP1; [5]
  EC50: 210 nM
[1]
  microsomal CLint: < 3 µL/min/mg
[2]
  hepatocyte CLint: 19 µL/min/1e6 cells
Solubility (Test F)
  solubility: 3.1 µM (≈ 1.68 µg/mL)
[3]
  Test B Human Plasma Protein Binding (% free): 0.64 % free
[4]
  hepatocyte CLint at 1 µM: 4.2 µL/min/1e6 cells

## COc1cc(F)c(Cc2cn[nH]c2)cc1C(=O)N[C@@H]1[C@H]2CC[C@H](C2)[C@@H]1C(=O)Nc1cccc(S(=O)(=O)C(F)(F)F)c1 [Example 219, (1R,2S,3R,4S)-3-(5-((1H-Pyrazol-4-yl)methyl)-4-fluoro-2-methoxybenzamido)-N-(3-((trifluoromethyl)sulfonyl)phenyl)bicyclo[2.2.1]heptane-2-carboxamide]
Human RXFP1; RXFP1 Hu cAMP
  Test A Sinf: 113%
[1]
  microsomal CLint: > 300 µL/min/mg
[2]
  hepatocyte CLint: 130 µL/min/1e6 cells
Solubility (Test F)
  solubility: 5 µM (≈ 2.97 µg/mL)
[3]
  Test B Human Plasma Protein Binding (% free): 0.19 % free
[4]
  hepatocyte CLint at 1 µM: 78 µL/min/1e6 cells

## COc1cc(F)c(Cc2cnn(CC(=O)O)c2)cc1C(=O)N[C@@H]1[C@H]2CC[C@H](C2)[C@@H]1C(=O)Nc1cccc(S(=O)(=O)C(F)(F)F)c1 [Example 220, 2-(4-(2-Fluoro-4-methoxy-5-(((1S,2R,3S,4R)-3-((3-((trifluoromethyl)sulfonyl)phenyl)carbamoyl)bicyclo[2.2.1]heptan-2-yl)carbamoyl)benzyl)-1H-pyrazol-1-yl)acetic acid]
Human RXFP1; RXFP1 Hu cAMP
  Test A Sinf: 109%
Human RXFP1; [5]
  EC50: 1500 nM
[1]
  microsomal CLint: 10 µL/min/mg
[2]
  hepatocyte CLint: 14 µL/min/1e6 cells
Solubility (Test F)
  solubility: 940 µM (≈ 613 µg/mL)
[3]
  Test B Human Plasma Protein Binding (% free): 0.95 % free
[4]
  hepatocyte CLint at 1 µM: 7.2 µL/min/1e6 cells
